From patent US11099188B2, “ROS kinase in lung cancer” (CELL SIGNALING TECHNOLOGY, INC., priority 2006, dated 2021)
pIC50: −log10 of the molar value.

Columns and labels:
[1] = system: BaF3 cells transduced with the FLT-3ITD retrovirus; test: Western blotting of phosphorylation in BaF3 cells transduced with the FLT-3ITD retrovirus; assay type: cell-based
Description: (§1) All antibodies were from Cell Signaling Technology, Inc. (Danvers, Mass.)
(§2) Since ROS, ALK, LTK, InsR, and IGF1R belong to the same family of tyrosine kinases, they may share similar structure in the kinase domain.

FIG-ROS(S) = target: T1, FIG-ROS(S) (Homo sapiens, UniProt P08922); test: Western blotting of phosphorylation in FIG-ROS(S) expressing BaF3 cells; assay type: cell-based
T1 construct: expressed in transfected cells; host or cells: BaF3 cells, retrovirally transduced, selected for IL3-independent growth
Description: as §1, §2

FIG-ROS(L) = FIG-ROS(L) (Homo sapiens, UniProt P08922); test: Western blotting of phosphorylation in FIG-ROS(L) expressing BaF3 cells; assay type: cell-based
Description: as §1, §2

[2] = system: BaF3 cells expressing FIG-ROS(L); test: Flow cytometry, cleaved caspase-3 as apoptosis marker, BaF3 FIG-ROS(L); assay type: cell-based; conditions: in the presence of TAE-684, FIG. 19
Description: (§3) The mechanism of death of the BaF3 and Karpas 299 cells was next assessed by measuring the percentage of cleaved-caspase 3 positive cells by flow cytometry assay using cleaved caspase-3 as a marker for apoptosis.

[3] = system: BaF3 expressing FIG-ROS(S); test: MTS assay, growth of BaF3 cells expressing FIG-ROS(S); assay type: cell-based; conditions: for pIC50: Mus musculus, BaF3, 72 h
Description: (§4) BaF3 and Karpas 299 cells were obtained from DSMZ (Deutsche Sammlung von Mikroorganismen and Zellkulturen GmbH, Germany). BaF3 cells, which need interleukin-3 to survive, were maintained at 37° C. in RPMI-1640 medium (Invitrogen) with 10% fetal bovine serum (FBS) (Sigma) and 1.0 ng/ml murine IL-3 (R&D Systems). Karpas 299 cells (a lymphoma cell line) were grown in RPMI-1640 with 10% FBS.
(§5) BaF3 cells were transduced with retrovirus encoding FIG-ROS(S), FIG-ROS(L), or FLT-3ITD (the Internal tandem duplication mutation in FLT3 causes AML leukemia), and selected for IL3 independent growth. Karpas 299 cells, which express NPM-ALK, was used as a positive control. Retroviruses were generated as previously described (see PCT Publication No. WO 2010/093928, incorporated by reference).
(§6) A MTS assay was performed using the CellTiter 96 Aqueous One Solution Reagent (Promega, Catalog No G3582). […] After 72 hours, 20 μl of the CellTiter 96 Aqueous One Solution Reagent was added into each well of a 96 well assay plate (flat bottom), and then 100 μl of cells grown with or without treatment. Media-only wells were used as controls. The 96 well plate was incubated for 1-4 hours at 37° C., and then viable cells were counted by reading the absorbance at 490 nm using a 96 well plate reader.

[4] = system: BaF3 cells transduced with neo-myc; test: MTS assay, growth of BaF3 cells transduced with neo-myc (negative control); assay type: cell-based; conditions: Mus musculus, 72 hours, second experiment only
Description: as §4, §6

Karpas 299 cells [5] = test: cells; conditions: for pIC50: Homo sapiens, KARPAS-299, 72 h
Description: as §4, §5, §6

BaF3 expressing FLT3ITD = test: cells; conditions: for pIC50: Mus musculus, BaF3, 72 h
Description: as §4, §5, §6

Karpas 299 cells [6] = test: Flow cytometry, cleaved caspase-3 as apoptosis marker, Karpas 299; assay type: cell-based; conditions: in the presence of TAE-684, FIG. 19
Description: as §3

ALK in Karpas 299 cells = test: Western blotting of phosphorylation in Karpas 299 cells; assay type: cell-based; conditions: 0, 10, 50, or 100 nM for three hours, FIG. 20
Description: as §1, §2

[7] = system: BaF3 cells expressing FIG-ROS(S); test: Flow cytometry, cleaved caspase-3 as apoptosis marker, BaF3 FIG-ROS(S); assay type: cell-based; conditions: in the presence of TAE-684, FIG. 19
Description: as §3

[8] = system: BaF3 expressing FIG-ROS(L); test: MTS assay, growth of BaF3 cells expressing FIG-ROS(L); assay type: cell-based; conditions: for pIC50: Mus musculus, BaF3, 72 h
Description: as §4, §5, §6

[9] = 0, 0.1, 0.3, or 1.0 uM for three hours, FIG. 22
[10] = 72 hours, first of two experiments
[11] = 72 hours, second of two experiments
[12] = same concentration of each, 0-1.0 uM, FIG. 21A/21B
[13] = 0, 10, 50, or 100 nM for three hours, FIG. 20

C[C@@H](Oc1cc(-c2cnn(C3CCNCC3)c2)cnc1N)c1c(Cl)ccc(F)c1Cl [crizotinib]
phosphorylation of STAT3 and ERK [1, 9]: not affected
phosphorylation of FIG-ROS(S) (FIG-ROS(S); [9]): inhibited
phosphorylation of STAT3 and ERK (FIG-ROS(S); [9]): inhibited
phosphorylation of FIG-ROS(L) (FIG-ROS(L); [9]): inhibited
phosphorylation of STAT3 and ERK (FIG-ROS(L); [9]): inhibited

COc1cc(N2CCC(N3CCN(C)CC3)CC2)ccc1Nc1ncc(Cl)c(Nc2ccccc2S(=O)(=O)C(C)C)n1 [TAE-684]
mechanism of death, cleaved-caspase 3 positive cells (apoptosis) [2]: die by apoptosis
cellular growth response in the presence of TAE-684 ([3]; 0-1000 nM, 72 hours, FIG. 18): stopped growing
pIC50 [3, 10]: 7.99
pIC50 [3, 11]: 7.82
sensitivity of cellular growth, TAE-684 compared with crizotinib [3, 12]: more sensitive to TAE-684 than to crizotinib
pIC50 [4]: 5.78
cellular growth response in the presence of TAE-684 (Karpas 299 cells [5]; 0-1000 nM, 72 hours, FIG. 18): stopped growing
pIC50 (Karpas 299 cells [5]; first of two experiments): 8.31
pIC50 (Karpas 299 cells [5]; second of two experiments): 8.36
cellular growth response in the presence of TAE-684 (BaF3 expressing FLT3ITD; 0-1000 nM, 72 hours, FIG. 18): not susceptible
pIC50 (BaF3 expressing FLT3ITD; first of two experiments): 6.38
pIC50 (BaF3 expressing FLT3ITD; second of two experiments): 6.50
mechanism of death, cleaved-caspase 3 positive cells (apoptosis) (Karpas 299 cells [6]): did not die by apoptosis
ALK and ERK phosphorylation (ALK in Karpas 299 cells): inhibited
phosphorylation of STAT3, AKT, and ERK, and Shp2 [1, 13]: not affected
phosphorylation of FIG-ROS(S) (FIG-ROS(S); [13]): inhibited
phosphorylation of STAT3, AKT, and ERK, and Shp2 (FIG-ROS(S); [13]): inhibited
phosphorylation of FIG-ROS(L) (FIG-ROS(L); [13]): inhibited
phosphorylation of STAT3, AKT, and ERK, and Shp2 (FIG-ROS(L); [13]): inhibited
mechanism of death, cleaved-caspase 3 positive cells (apoptosis) [7]: die by apoptosis
cellular growth response in the presence of TAE-684 ([8]; 0-1000 nM, 72 hours, FIG. 18): stopped growing
pIC50 [8, 10]: 8.75
pIC50 [8, 11]: 8.55
sensitivity of cellular growth, TAE-684 compared with crizotinib [8, 12]: more sensitive to TAE-684 than to crizotinib
